Results published in ChEMBL document CHEMBL2146454, “2,6-Naphthyridines as potent and selective inhibitors of the novel protein kinase C isozymes” (Bioorg Med Chem Lett, 2011).

Legend:
[1] = molecular target: T1, Protein kinase C epsilon type (Homo sapiens, UniProt Q02156); test: Inhibition of recombinant human PKCepsilon assessed as [33P]-ATP incorporation into tridecapeptide substrate after 60 mins by scintillation proximity assay
T1 sequence (Q02156 whole entry): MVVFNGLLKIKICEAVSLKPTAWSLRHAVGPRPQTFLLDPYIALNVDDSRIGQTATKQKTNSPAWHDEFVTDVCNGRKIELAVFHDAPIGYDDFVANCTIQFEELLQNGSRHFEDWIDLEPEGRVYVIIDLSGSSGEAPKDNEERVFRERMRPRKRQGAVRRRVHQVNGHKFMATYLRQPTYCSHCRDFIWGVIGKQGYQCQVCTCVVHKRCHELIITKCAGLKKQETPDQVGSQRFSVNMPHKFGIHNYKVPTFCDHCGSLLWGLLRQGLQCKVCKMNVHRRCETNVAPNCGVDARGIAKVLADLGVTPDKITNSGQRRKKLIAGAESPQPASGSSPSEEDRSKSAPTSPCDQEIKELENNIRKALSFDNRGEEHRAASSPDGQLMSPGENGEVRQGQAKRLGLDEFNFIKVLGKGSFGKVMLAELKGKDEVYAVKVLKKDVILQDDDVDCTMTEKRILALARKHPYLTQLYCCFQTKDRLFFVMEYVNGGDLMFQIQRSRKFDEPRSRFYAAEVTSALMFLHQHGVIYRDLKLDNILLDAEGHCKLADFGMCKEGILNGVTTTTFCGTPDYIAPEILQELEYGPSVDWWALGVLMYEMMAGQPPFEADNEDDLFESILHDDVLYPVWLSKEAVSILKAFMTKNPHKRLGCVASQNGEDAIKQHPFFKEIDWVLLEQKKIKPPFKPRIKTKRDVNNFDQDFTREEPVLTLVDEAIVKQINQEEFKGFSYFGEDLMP

[2] = molecular target: Protein kinase C beta type (Homo sapiens, UniProt P05771); test: Inhibition of recombinant human PKCbeta1 assessed as [33P]-ATP incorporation into tridecapeptide substrate after 60 mins by scintillation proximity assay
Sequence of Protein kinase C beta type (P05771 whole entry): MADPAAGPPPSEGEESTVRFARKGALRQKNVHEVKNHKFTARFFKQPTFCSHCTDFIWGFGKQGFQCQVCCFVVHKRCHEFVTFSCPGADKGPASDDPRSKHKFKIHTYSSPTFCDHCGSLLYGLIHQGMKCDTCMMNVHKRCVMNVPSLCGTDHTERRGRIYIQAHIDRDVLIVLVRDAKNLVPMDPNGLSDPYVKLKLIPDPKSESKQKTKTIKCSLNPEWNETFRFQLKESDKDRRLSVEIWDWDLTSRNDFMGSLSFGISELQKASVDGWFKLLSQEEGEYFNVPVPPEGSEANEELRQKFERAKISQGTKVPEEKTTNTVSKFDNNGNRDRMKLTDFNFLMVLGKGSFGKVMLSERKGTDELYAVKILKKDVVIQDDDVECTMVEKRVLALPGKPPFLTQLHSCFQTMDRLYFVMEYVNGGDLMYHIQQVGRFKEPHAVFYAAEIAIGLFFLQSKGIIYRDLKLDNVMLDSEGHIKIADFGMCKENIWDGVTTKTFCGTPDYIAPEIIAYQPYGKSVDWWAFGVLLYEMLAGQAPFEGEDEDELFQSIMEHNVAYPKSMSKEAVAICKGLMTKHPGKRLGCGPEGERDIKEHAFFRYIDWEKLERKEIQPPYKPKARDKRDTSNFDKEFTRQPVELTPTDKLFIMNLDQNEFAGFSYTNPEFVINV

[3] = molecular target: Protein kinase C delta type (Homo sapiens, UniProt Q05655); test: Inhibition of recombinant human PKCdelta assessed as [33P]-ATP incorporation into tridecapeptide substrate after 60 mins by scintillation proximity assay
Sequence of Protein kinase C delta type (Q05655 whole entry): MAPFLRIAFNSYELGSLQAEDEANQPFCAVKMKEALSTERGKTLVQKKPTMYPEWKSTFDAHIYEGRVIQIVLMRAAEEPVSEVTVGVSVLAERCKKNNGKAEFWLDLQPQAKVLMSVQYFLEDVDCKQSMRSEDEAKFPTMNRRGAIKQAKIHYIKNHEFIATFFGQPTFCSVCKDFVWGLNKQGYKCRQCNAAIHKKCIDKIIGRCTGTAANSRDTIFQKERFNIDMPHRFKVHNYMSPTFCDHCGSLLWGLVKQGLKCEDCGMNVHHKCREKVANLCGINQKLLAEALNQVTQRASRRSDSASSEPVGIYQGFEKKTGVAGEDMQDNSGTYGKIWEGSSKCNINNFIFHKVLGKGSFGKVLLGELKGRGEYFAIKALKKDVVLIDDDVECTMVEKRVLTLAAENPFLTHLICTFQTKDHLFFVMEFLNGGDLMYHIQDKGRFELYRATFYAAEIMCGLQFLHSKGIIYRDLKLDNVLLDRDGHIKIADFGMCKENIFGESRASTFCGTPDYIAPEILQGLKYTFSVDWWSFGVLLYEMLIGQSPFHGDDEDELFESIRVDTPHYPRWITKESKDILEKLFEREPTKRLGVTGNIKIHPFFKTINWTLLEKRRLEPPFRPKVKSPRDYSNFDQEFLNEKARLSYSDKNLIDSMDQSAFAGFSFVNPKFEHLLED

[4] = molecular target: Protein kinase C alpha type (Homo sapiens, UniProt P17252); test: Inhibition of recombinant human PKCalpha assessed as [33P]-ATP incorporation into tridecapeptide substrate after 60 mins by scintillation proximity assay
[5] = molecular target: Protein kinase C theta type (Homo sapiens, UniProt Q04759); test: Inhibition of recombinant human PKCtheta assessed as [33P]-ATP incorporation into tridecapeptide substrate after 60 mins by scintillation proximity assay
Sequence of Protein kinase C theta type (Q04759 whole entry): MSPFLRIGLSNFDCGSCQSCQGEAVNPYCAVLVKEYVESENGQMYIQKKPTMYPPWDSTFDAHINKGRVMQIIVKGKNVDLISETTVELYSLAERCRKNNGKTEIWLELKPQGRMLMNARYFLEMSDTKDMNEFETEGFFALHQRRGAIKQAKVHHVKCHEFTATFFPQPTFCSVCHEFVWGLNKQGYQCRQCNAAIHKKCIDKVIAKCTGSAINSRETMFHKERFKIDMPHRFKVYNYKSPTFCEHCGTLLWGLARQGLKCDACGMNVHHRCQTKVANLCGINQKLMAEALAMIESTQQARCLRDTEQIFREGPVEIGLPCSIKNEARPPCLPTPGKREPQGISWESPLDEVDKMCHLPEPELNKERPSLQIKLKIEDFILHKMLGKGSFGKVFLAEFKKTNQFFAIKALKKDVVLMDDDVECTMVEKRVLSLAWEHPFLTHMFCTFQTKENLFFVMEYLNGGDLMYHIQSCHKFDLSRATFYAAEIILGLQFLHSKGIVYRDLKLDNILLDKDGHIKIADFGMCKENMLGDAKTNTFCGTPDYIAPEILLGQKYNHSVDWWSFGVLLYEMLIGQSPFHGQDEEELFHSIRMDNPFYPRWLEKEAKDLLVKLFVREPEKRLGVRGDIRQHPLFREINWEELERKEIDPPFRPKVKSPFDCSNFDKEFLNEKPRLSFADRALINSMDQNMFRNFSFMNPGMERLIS

[6] = molecular target: Protein kinase C eta type (Homo sapiens, UniProt P24723); test: Inhibition of recombinant human PKCeta assessed as [33P]-ATP incorporation into tridecapeptide substrate after 60 mins by scintillation proximity assay
Sequence of Protein kinase C eta type (P24723 whole entry): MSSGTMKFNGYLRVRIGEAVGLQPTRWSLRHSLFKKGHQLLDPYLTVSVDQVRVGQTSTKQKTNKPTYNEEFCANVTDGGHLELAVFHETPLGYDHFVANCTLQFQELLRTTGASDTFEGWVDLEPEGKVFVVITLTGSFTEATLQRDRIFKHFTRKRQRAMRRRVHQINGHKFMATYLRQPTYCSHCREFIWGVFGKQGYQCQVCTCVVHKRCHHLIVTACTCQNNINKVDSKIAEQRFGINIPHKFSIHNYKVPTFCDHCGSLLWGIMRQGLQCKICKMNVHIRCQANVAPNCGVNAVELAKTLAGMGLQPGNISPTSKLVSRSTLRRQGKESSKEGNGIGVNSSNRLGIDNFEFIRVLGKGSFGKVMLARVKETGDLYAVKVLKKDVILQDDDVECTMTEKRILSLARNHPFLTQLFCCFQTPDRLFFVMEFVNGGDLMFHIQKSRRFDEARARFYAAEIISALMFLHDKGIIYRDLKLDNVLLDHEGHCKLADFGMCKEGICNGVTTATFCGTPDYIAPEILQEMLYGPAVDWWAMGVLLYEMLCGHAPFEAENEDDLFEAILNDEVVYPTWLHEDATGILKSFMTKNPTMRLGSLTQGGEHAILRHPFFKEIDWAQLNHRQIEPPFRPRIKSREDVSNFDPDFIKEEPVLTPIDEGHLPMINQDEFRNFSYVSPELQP

[7] = Inhibition of antiCD3 and antiCD28 antibody-stimulated rat blood T lymphocyte proliferation incubated 1 hr before antibody challenge measured after 52 hrs by radioactive [3H]-thymidine incorporation assay; format: tissue-based; conditions: T-cell
Mus musculus [8] = species: Mus musculus; test: animal or person; format: functional; conditions: BALB/c, route oral
[9] = Tmax in Lewis rat at 10 mg/kg, po; format: ADME, organism-based; set-up: dose 10 mg/kg, route oral; conditions: in vivo
[10] = Volume of distribution at steady state in Lewis rat at 5 mg/kg, iv; format: ADME, organism-based; set-up: dose 5 mg/kg, route intravenous; conditions: in vivo, read-out: Vdss
[11] = Clearance in Lewis rat at 5 mg/kg, iv; format: ADME, organism-based; set-up: dose 5 mg/kg, route intravenous; conditions: in vivo
[12] = Dissociation constant, pKa of the compound; format: physicochemical
[13] = Lipophilicity, log P of the compound; format: physicochemical; conditions: octanol/water
[14] = AUC (infinity) in Lewis rat at 10 mg/kg, po; format: ADME, organism-based; set-up: time infinity, dose 10 mg/kg, route oral; conditions: plasma
[15] = Elimination half life in Lewis rat at 5 mg/kg, iv; format: ADME, organism-based; set-up: dose 5 mg/kg, route intravenous; conditions: in vivo, read-out: beta t1/2 (converted)
[16] = Oral bioavailability in Lewis rat at 10 mg/kg; format: ADME, organism-based; conditions: in vivo
[17] = AUC (infinity) in Lewis rat at 5 mg/kg, iv; format: ADME, organism-based; set-up: dose 5 mg/kg, route intravenous, time infinity; conditions: plasma
Mus musculus [18] = species: Mus musculus; test: animal or person; format: functional; conditions: BALB/c, route oral; remark: listed apart in the source
[19] = Intrinsic aqueous solubility of the compound; format: physicochemical; conditions: read-out: Intrinsic_solubility
[20] = Plasma protein binding in human by rapid equilibrium dialysis method; format: ADME, cell-free; conditions: read-out: PPB (converted)
[21] = Octanol-water distribution coefficient, log D of the compound at pH 6.8; format: physicochemical
[22] = Plasma protein binding in rat by rapid equilibrium dialysis method; format: ADME, cell-free; conditions: read-out: PPB (converted)
[23] = Cmax in Lewis rat at 10 mg/kg, po; format: ADME, organism-based; set-up: dose 10 mg/kg, route oral; conditions: in vivo

Compound	IC50 [1]	IC50 [2]	IC50 [3]	IC50 [4]	IC50 [5]	IC50 [6]	other results
NC1CCCN(c2nc(-c3ccncc3)cc3cnccc23)C1 (stereo not given)	8 nM	865 nM	214 nM	771 nM	132 nM	13 nM	–
NCCNc1cc(-c2ccncc2)cc2cnccc12	44 nM	> 1000 nM	157 nM	> 1000 nM	355 nM	54 nM	IC50 [7]: 1040 nM
CC(C)(N)CNc1nc(-c2ccncc2Cl)cc2cnccc12	47 nM	> 1000 nM	221 nM	> 1000 nM	93 nM	15 nM	–
NC(CNc1nc(-c2ccncc2)cc2cnccc12)Cc1ccccc1 (stereo not given)	403 nM	> 1000 nM	932 nM	818 nM	> 1000 nM	452 nM	–
CNCCNc1nc(-c2ccncc2)cc2cnccc12	79 nM	> 1000 nM	254 nM	> 1000 nM	997 nM	93 nM	–
CN(CCN)c1nc(-c2ccncc2)cc2cnccc12	24 nM	> 1000 nM	371 nM	> 1000 nM	350 nM	34 nM	–
NCCNc1nc(-c2ccncc2)cc2ncccc12	929 nM	> 1000 nM	> 1000 nM	> 1000 nM	> 1000 nM	401 nM	–
NCCNc1nc(-c2ccncc2)cc2ccncc12	> 1000 nM	> 1000 nM	> 1000 nM	> 1000 nM	> 1000 nM	> 1000 nM	–
NCCNc1nc(-c2ccncc2)cc2ccccc12	877 nM	> 1000 nM	> 1000 nM	> 1000 nM	> 1000 nM	743 nM	–
CC(C)(N)CNc1nc(-c2cccnc2)cc2cnccc12	> 1000 nM	> 1000 nM	> 1000 nM	> 1000 nM	> 1000 nM	> 1000 nM	–
Cc1cnccc1-c1cc2cnccc2c(NCC(C)(C)N)n1	133 nM	> 1000 nM	386 nM	> 1000 nM	738 nM	52 nM	–
CC(C)(N)CNc1nc(-c2ccnc(N)c2)cc2cnccc12	147 nM	> 1000 nM	294 nM	378 nM	496 nM	60 nM	–
c1cc(-c2cc3cnccc3c(N3CCNCC3)n2)ccn1	8 nM	823 nM	–	> 1000 nM	109 nM	6 nM	–
O=C1CN(c2nc(-c3ccncc3)cc3cnccc23)CCN1	802 nM	> 1000 nM	> 1000 nM	> 1000 nM	> 1000 nM	735 nM	–
C[C@H](N)CNc1nc(-c2ccncc2)cc2cnccc12	5 nM	378 nM	8 nM	829 nM	55 nM	2 nM	inhibition in vivo at 50 mg/kg (Mus musculus [8]): 37%; Tmax [9]: 2 h; Vd [10]: 14 L/kg; clearance [11]: 49 mL/min/kg; pKa [12]: 9; logP [13]: 2.2; AUC(0-inf) [14]: 712 ng·h/mL; half-life [15]: 8.1 h; IC50 [7]: 138 nM; bioavailability [16]: 20%; AUC(0-inf) [17]: 1770 ng·h/mL; inhibition in vivo at 100 mg/kg (Mus musculus [18]): 70%; solubility [19]: > 400 µg/mL; fraction unbound [20]: 0.42; logD [21]: -0.3; fraction unbound [22]: 0.37; Cmax [23]: 53 ng/mL
OCCNc1nc(-c2ccncc2)cc2cnccc12	81 nM	> 1000 nM	635 nM	> 1000 nM	743 nM	188 nM	–
c1cc(-c2cc3cnccc3c(N3CCCNCC3)n2)ccn1	7 nM	661 nM	63 nM	433 nM	77 nM	4 nM	–
CC(C)Nc1cc(-c2cc3cnccc3c(NCC(C)(C)N)n2)ccn1	> 1000 nM	> 1000 nM	> 1000 nM	> 1000 nM	> 1000 nM	862 nM	–
NCCCNc1nc(-c2ccncc2)cc2cnccc12	13 nM	779 nM	53 nM	676 nM	97 nM	10 nM	–
NCCOc1nc(-c2ccncc2)cc2cnccc12	120 nM	> 1000 nM	703 nM	> 1000 nM	948 nM	82 nM	–
CC(C)(N)CNc1nc(-c2ccncc2F)cc2cnccc12	62 nM	961 nM	124 nM	> 1000 nM	140 nM	18 nM	–
NCCNc1nc(-c2ccncc2)nc2cnccc12	38 nM	> 1000 nM	102 nM	> 1000 nM	> 1000 nM	27 nM	–
NCCNc1nc(-c2ccncc2)cc2cnccc12	–	859 nM	–	–	–	–	–
